Key:
Assay type in all cases: physicochemical
[1] = Aerosol performances of the pMDI formulations of formoterol fumarate microparticles (Next Generation Impactor); settings: pMDI suspension in HFA134a, nominal dose 12 μg, mean±S.D.
Experimental: To prepare pMDI aerosol suspension formulations with a nominal dose of the active ingredient of 12 μg, the aluminum canisters were filled in a controlled atmosphere room, by successively introducing 2.4 mg the microparticles of Example 1 and then 10 ml pressurized HFA134a gas. The devices were fitted with a 50 μl APTAR valve and a Bespak actuator of 0.3 mm. For comparative purposes, a pMDI aerosol suspension formulations comprising micronized formoterol fumarate dihydrate was also prepared. The sedimentation rate was determined using a Turbiscan apparatus (Formulaction SA, France).
(§1) The pMDI formulations were also characterized in terms of aerosol performances. They were assessed using a Next Generation Impactor to according to the procedure described in the European Pharmacopoeia 7th edition, 2011, part 2.9.18.
(§2) Quantification of formoterol fumarate dihydrate (FF) was performed using a HPLC method. The following parameters were determined: • i) delivered dose (DD) is calculated from the cumulative deposition in the […], divided by the number of actuations per experiment; • ii) fine particle mass (FPM) is obtained by interpolation of the cumulative percentage undersize of drug mass deposition versus cut off diameter. The FPM corresponds to particles of diameter ≤5.0 microns, divided by the number of actuations per experiment. • iii) respirable fraction (fine particle fraction=FPF) which is the percent ratio between the fine particle mass and the delivered dose. • iv) mass median aerodynamic diameter (MMAD) which is the diameter around which the mass aerodynamic diameters of the emitted particles are distributed equally;

[2] = Aerosol performances of the powder formulations (Next Generation Impactor, RS01/7 inhaler); settings: dry powder with alpha-lactose monohydrate carrier, 6 μg drug to 10 mg carrier, mean±S.D.
Experimental: To prepare powder formulations, the microparticles of Example 1 FF-myr 0.5 and Ff-myr 2.0 were mixed in a Turbula mixer with alpha-lactose monohydrate having a mass diameter comprised between 90 and 150 μm as a carrier, to obtain a ratio of 6 μg of drug to 10 mg of carrier. […] Each powder was filled in hard HMPC gelatine capsules, in turn loaded in a RS01/7 unit dose inhaler (Plastiape, Italy).
The aerosol performances were evaluated using a Next Generation Impactor (NGI) according to the procedure described in European Pharmacopoeia 7th edition, 2011, part 2.9.18, pages 281-285. The results (mean±S.D.) in terms of delivered dose (DD), fine particle mass (FPM), fine particle fraction (FPF) and mass median aerodynamic diameter (MMAD), are reported in Table 3.

[3] = Aerosol performances of the pMDI formulations of salmeterol xinafoate microparticles (Next Generation Impactor); settings: pMDI suspension in HFA134a, FEP-coated canisters, nominal dose 25 μg, mean±S.D.
Experimental: as §1, §2
To prepare pMDI aerosol suspension formulations with a nominal dose of the active ingredient of 25 μg, canisters coated with FEP were filled in a controlled atmosphere room, by successively introducing 3.0 mg the microparticles of Example 5 and then 6 ml pressurized HFA134a gas. The devices were fitted with a 50 μl APTAR valve and a Bespak actuator of 0.3 mm. For comparative purposes, a pMDI aerosol suspension formulations comprising micronized salmeterol xinafoate was also prepared. The pMDI formulations were characterized in terms of aerosol performances. They were assessed as described in Example 3.

Question: What does the source list for COc1ccc(CC(C)NCC(O)c2ccc(O)c(NC=O)c2)cc1.COc1ccc(CC(C)NCC(O)c2ccc(O)c(NC=O)c2)cc1.O.O.O=C(O)/C=C/C(=O)O (stereo not drawn) [FF raw material, formoterol fumarate dihydrate]?
Answer: DD (delivered dose) [1]: 8.34 ± 0.32 µg; FPF (fine particle fraction, respirable fraction) [1]: 81.9 ± 2.9%; FPM (fine particle mass, ≤5.0 microns) [1]: 6.84 ± 0.51 µg; MMAD (mass median aerodynamic diameter) [1]: 1.92 ± 0.00 μm; DD (delivered dose) [2]: 73 ± 0.02 µg; FPF (fine particle fraction) [2]: 14.03 ± 0.82%; FPM (fine particle mass) [2]: 0.71 ± 0.04 µg; MMAD (mass median aerodynamic diameter) [2]: 2.36 ± 0.05 μm

Question: What does the source list for OCc1cc(C(O)CNCCCCCCOCCCCc2ccccc2)ccc1O (stereo not drawn) [SX raw, salmeterol xinafoate]?
Answer: DD (delivered dose) [3]: 14.28 ± 1.72 µg; FPF (fine particle fraction) [3]: 29.74 ± 1.75%; FPM (fine particle mass) [3]: 4.23 ± 0.25 µg; MMAD (mass median aerodynamic diameter) [3]: 2.79 ± 0.39 μm

Source: patent US10993916B2, “Crystalline microparticles of a beta-agonist coated with a fatty acid” (Chiesi Farmaceutici S.p.A., priority 2011, dated 2021)
